Experimental data taken from EP0180045A2, “Benzanthrin compounds” (ABBOTT LABORATORIES, priority 1984, dated 1986).
≈ marks a conversion by molar mass, not a printed value.

Tests used:
Escherichia coli DC-2 = experiment: MIC, agar dilution method; format: cell-based; details: Brain Heart Infusion agar, 10^5 CFU inoculum
Description: (§1) The antibacterial activity of the compounds of the invention against a variety of microorganisms is illustrated in Table 3. Minimum inhibitory concentrations were determined by the agar dilution method using brain heart infusion agar with 10 ^5 CFU (colony forming units) as the inoculum.

[1] = system: Staphylococcus aureus A5177; experiment: MIC, agar dilution method; format: cell-based; details: Brain Heart Infusion agar, 10^5 CFU inoculum
Description: as §1

[2] = system: Pseudomonas aeruginosa 5007; experiment: MIC, agar dilution method; format: cell-based; details: Brain Heart Infusion agar, 10^5 CFU inoculum
Description: as §1

[3] = system: Klebsiella pneumoniae ATCC 8045; experiment: MIC, agar dilution method; format: cell-based; details: Brain Heart Infusion agar, 10^5 CFU inoculum
Description: as §1

Staphylococcus aureus 45 = experiment: MIC, agar dilution method; format: cell-based; details: Brain Heart Infusion agar, 10^5 CFU inoculum
Description: as §1

[4] = system: Lactobacillus casei ATCC 7469; experiment: MIC, agar dilution method; format: cell-based; details: Brain Heart Infusion agar, 10^5 CFU inoculum
Description: as §1

[5] = system: Staphylococcus aureus ATCC 6538P; experiment: MIC, agar dilution method; format: cell-based; details: Brain Heart Infusion agar, 10^5 CFU inoculum
Description: as §1

Escherichia coli Juhl = experiment: MIC, agar dilution method; format: cell-based; details: Brain Heart Infusion agar, 10^5 CFU inoculum
Description: as §1

Escherichia coli SS = experiment: MIC, agar dilution method; format: cell-based; details: Brain Heart Infusion agar, 10^5 CFU inoculum
Description: as §1

[6] = system: Enterobacter aerogenes ATCC 13048; experiment: MIC, agar dilution method; format: cell-based; details: Brain Heart Infusion agar, 10^5 CFU inoculum
Description: as §1

[7] = system: Staphylococcus epidermidis 3519 RAR1; experiment: MIC, agar dilution method; format: cell-based; details: Brain Heart Infusion agar, 10^5 CFU inoculum
Description: as §1

[8] = system: Staphylococcus aureus 45 RAR2; experiment: MIC, agar dilution method; format: cell-based; details: Brain Heart Infusion agar, 10^5 CFU inoculum
Description: as §1

[9] = system: Streptococcus pyogenes EES61; experiment: MIC, agar dilution method; format: cell-based; details: Brain Heart Infusion agar, 10^5 CFU inoculum
Description: as §1

[10] = system: Staphylococcus aureus CMX 686b; experiment: MIC, agar dilution method; format: cell-based; details: Brain Heart Infusion agar, 10^5 CFU inoculum
Description: as §1

Pseudomonas cepacia 2961 = experiment: MIC, agar dilution method; format: cell-based; details: Brain Heart Infusion agar, 10^5 CFU inoculum
Description: as §1

[11] = system: Streptococcus pyogenes 930; experiment: MIC, agar dilution method; format: cell-based; details: Brain Heart Infusion agar, 10^5 CFU inoculum
Description: as §1

[12] = system: Staphylococcus epidermidis 3519; experiment: MIC, agar dilution method; format: cell-based; details: Brain Heart Infusion agar, 10^5 CFU inoculum
Description: as §1

[13] = system: Streptococcus bovis A5169; experiment: MIC, agar dilution method; format: cell-based; details: Brain Heart Infusion agar, 10^5 CFU inoculum
Description: as §1

[14] = system: Streptococcus agalactiae CMX 508; experiment: MIC, agar dilution method; format: cell-based; details: Brain Heart Infusion agar, 10^5 CFU inoculum
Description: as §1

[15] = system: Streptococcus faecium ATCC 8043; experiment: MIC, agar dilution method; format: cell-based; details: Brain Heart Infusion agar, 10^5 CFU inoculum
Description: as §1

KB cells = experiment: KB antitumor test (cytotoxicity); format: cell-based, human; details: Tumor Cell 9KB; dose which inhibits growth to 50% of control growth by 3 days after drug addition
Description: The cytotoxic activity of the compounds of the invention can be tested by a KB antitumor test. KB cells are derived from human epidermoid carcinoma of the mouth and are cultivated on Eagel's basal medium plus 10% serum. Stock cells are fed 24 hours before testing. Test drug is added on day 0 or day 1. Results are expressed as the dose which inhibits growth to 50% of control growth by 3 days after drug addition.
When the K8 antitumor test was conducted on benzanthrins A and B, the following test data resulted: […]

Sarcina lutea 9341 = experiment: MIC, agar dilution method; format: cell-based; details: Brain Heart Infusion agar, 10^5 CFU inoculum
Description: as §1

Acinetobacter CMX 669 = experiment: MIC, agar dilution method; format: cell-based; details: Brain Heart Infusion agar, 10^5 CFU inoculum
Description: as §1

Structure (SMILES)	MIC (Escherichia coli DC-2) [µg/mL]	MIC [1] [µg/mL]	MIC [2] [µg/mL]	MIC [3] [µg/mL]	MIC (Staphylococcus aureus 45) [µg/mL]	MIC [4] [µg/mL]	MIC [5] [µg/mL]	MIC (Escherichia coli Juhl) [µg/mL]	MIC (Escherichia coli SS) [µg/mL]	MIC [6] [µg/mL]	MIC [7] [µg/mL]	MIC [8] [µg/mL]	MIC [9] [µg/mL]	MIC [10] [µg/mL]	MIC (Pseudomonas cepacia 2961) [µg/mL]	MIC [11] [µg/mL]	MIC [12] [µg/mL]	MIC [13] [µg/mL]	MIC [14] [µg/mL]	MIC [15] [µg/mL]	also measured
Cc1cc2cc(O)c3c(c2c(O[C@@H]2C[C@H](N(C)C)[C@H](O)[C@@H](C)O2)c1[C@@H]1C[C@H](N(C)C)[C@@H](O)[C@H](C)O1)C(=O)c1cccc(O)c1C3=O [Benzanthrin B]	100 (≈ 158 µM)	1.56 (≈ 2.46 µM)	100 (≈ 158 µM)	100 (≈ 158 µM)	1.56 (≈ 2.46 µM)	0.78 (≈ 1.23 µM)	3.1 (≈ 4.88 µM)	100 (≈ 158 µM)	6.2 (≈ 9.77 µM)	100 (≈ 158 µM)	3.1 (≈ 4.88 µM)	3.1 (≈ 4.88 µM)	0.39 (≈ 0.614 µM)	1.56 (≈ 2.46 µM)	100 (≈ 158 µM)	0.2 (≈ 0.315 µM)	3.1 (≈ 4.88 µM)	0.2 (≈ 0.315 µM)	0.39 (≈ 0.614 µM)	1.56 (≈ 2.46 µM)	ED50 (KB cells): 200 to 300 µg/mL
Cc1cc2cc(O)c3c(c2c(O[C@@H]2C[C@H](N(C)C)[C@@H](O)[C@@H](C)O2)c1[C@@H]1C[C@H](N(C)C)[C@@H](O)[C@H](C)O1)C(=O)c1cccc(O)c1C3=O [Benzanthrin A]	100 (≈ 158 µM)	3.1 (≈ 4.88 µM)	100 (≈ 158 µM)	100 (≈ 158 µM)	3.1 (≈ 4.88 µM)	0.78 (≈ 1.23 µM)	3.1 (≈ 4.88 µM)	100 (≈ 158 µM)	3.1 (≈ 4.88 µM)	100 (≈ 158 µM)	3.1 (≈ 4.88 µM)	3.1 (≈ 4.88 µM)	1.56 (≈ 2.46 µM)	3.1 (≈ 4.88 µM)	100 (≈ 158 µM)	0.2 (≈ 0.315 µM)	3.1 (≈ 4.88 µM)	0.39 (≈ 0.614 µM)	0.78 (≈ 1.23 µM)	1.56 (≈ 2.46 µM)	MIC (Sarcina lutea 9341): 1.56 µg/mL (≈ 2.46 µM); MIC (Acinetobacter CMX 669): 100 µg/mL (≈ 158 µM); ED50 (KB cells): 100 to 300 µg/mL
